According to ChEMBL document CHEMBL4385620, “Inhibition of polypeptide N-acetyl-α-galactosaminyltransferases is an underlying mechanism of dietary polyphenols preventing colorectal tumorigenesis” (Bioorg Med Chem, 2019):
Activity calls are given as the source filed them. The rule behind the calls is not given here.

Columns and labels:
[1] = target: T1, Polypeptide N-acetylgalactosaminyltransferase 2 (Homo sapiens, UniProt Q10471); assay: Binding affinity of human recombinant FLAG-tagged ppGalNAcT2 expressed in HEK293 cells assessed as dissociation rate by SPR analysis
[2] = target: T1, Polypeptide N-acetylgalactosaminyltransferase 2; assay: Competitive inhibition of human recombinant FLAG-tagged ppGalNAcT2 expressed in HEK293 cells using EA2 peptide as substrate by HPLC-based enzyme assay
[3] = target: T2, Polypeptide N-acetylgalactosaminyltransferase 1 (Homo sapiens, UniProt Q10472); assay: Inhibition of catalytic activity of ppGalNAcT1 (unknown origin) using EA2 peptide as substrate incubated for 30 mins by HPLC-based enzyme assay
T2 sequence (Q10472 whole entry): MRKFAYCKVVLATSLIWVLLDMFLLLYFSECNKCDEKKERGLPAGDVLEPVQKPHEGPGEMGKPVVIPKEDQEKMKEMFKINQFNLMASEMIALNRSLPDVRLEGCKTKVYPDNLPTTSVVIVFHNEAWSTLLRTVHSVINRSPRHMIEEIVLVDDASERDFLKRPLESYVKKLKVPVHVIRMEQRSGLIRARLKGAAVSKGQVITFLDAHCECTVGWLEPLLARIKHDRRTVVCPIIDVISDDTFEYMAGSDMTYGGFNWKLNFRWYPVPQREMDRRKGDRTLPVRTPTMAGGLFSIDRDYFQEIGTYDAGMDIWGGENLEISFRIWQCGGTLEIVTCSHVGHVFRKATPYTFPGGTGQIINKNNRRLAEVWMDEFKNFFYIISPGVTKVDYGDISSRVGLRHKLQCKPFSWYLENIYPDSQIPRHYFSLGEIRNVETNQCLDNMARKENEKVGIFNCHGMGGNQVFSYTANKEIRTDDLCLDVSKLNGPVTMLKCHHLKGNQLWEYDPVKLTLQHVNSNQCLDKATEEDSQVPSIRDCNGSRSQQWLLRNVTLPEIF

[4] = target: T3, Polypeptide N-acetylgalactosaminyltransferase 13 (Homo sapiens, UniProt Q8IUC8); assay: Inhibition of catalytic activity of ppGalNAcT13 (unknown origin) using EA2 peptide as substrate incubated for 30 mins by HPLC-based enzyme assay
T3 sequence (Q8IUC8 whole entry): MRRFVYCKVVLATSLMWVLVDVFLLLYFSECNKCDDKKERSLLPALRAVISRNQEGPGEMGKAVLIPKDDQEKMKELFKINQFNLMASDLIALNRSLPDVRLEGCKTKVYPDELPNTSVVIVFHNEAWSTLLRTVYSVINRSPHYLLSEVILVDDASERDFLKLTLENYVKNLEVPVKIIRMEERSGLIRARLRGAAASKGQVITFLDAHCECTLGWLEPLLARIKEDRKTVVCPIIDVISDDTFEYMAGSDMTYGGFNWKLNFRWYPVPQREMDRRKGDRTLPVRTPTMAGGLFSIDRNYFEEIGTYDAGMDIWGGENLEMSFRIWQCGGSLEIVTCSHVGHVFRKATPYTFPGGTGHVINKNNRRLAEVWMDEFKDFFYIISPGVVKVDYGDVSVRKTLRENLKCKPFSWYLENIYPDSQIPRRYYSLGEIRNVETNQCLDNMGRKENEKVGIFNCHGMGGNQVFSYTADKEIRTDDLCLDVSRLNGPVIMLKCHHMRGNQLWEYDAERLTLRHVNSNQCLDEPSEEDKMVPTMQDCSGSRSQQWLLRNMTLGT

[5] = target: Polypeptide N-acetylgalactosaminyltransferase 14 (Homo sapiens, UniProt Q96FL9); assay: Inhibition of catalytic activity of ppGalNAcT14 (unknown origin) using EA2 peptide as substrate incubated for 30 mins by HPLC-based enzyme assay
[6] = target: T4, Polypeptide N-acetylgalactosaminyltransferase 3 (Homo sapiens, UniProt Q14435); assay: Inhibition of catalytic activity of ppGalNAcT3 (unknown origin) using EA2 peptide as substrate incubated for 30 mins by HPLC-based enzyme assay
T4 sequence (Q14435 whole entry): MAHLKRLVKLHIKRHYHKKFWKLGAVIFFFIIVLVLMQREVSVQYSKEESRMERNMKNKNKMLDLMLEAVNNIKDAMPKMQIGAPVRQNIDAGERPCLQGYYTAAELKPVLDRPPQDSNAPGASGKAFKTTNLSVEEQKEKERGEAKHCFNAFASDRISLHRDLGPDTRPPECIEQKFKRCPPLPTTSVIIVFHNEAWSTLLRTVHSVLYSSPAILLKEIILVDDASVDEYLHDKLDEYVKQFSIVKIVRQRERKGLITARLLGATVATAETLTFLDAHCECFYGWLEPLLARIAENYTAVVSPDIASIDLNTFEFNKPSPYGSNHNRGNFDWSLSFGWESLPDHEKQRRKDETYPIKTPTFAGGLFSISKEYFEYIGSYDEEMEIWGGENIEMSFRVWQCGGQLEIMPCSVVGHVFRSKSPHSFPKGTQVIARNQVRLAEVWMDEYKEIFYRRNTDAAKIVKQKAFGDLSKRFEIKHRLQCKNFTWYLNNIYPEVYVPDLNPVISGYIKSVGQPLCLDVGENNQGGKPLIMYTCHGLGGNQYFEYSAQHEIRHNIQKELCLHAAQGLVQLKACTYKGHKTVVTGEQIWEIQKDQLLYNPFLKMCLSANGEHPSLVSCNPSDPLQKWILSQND

[7] = species: Homo sapiens; assay: Ratio of IC50 for IC50 for human recombinant FLAG-tagged ppGalNAcT2 W282A mutant to IC50 for human recombinant FLAG-tagged ppGalNAcT2
[8] = target: T1, Polypeptide N-acetylgalactosaminyltransferase 2; assay: Inhibition of ppGalNAcT2 in human HT-29 cells assessed as reduction in O-GalNAc glycans by measuring PNA lectin expression at 20 to 60 uM incubated for 48 hrs by Western blot analysis; format: cell-based
[9] = test system: HT-29; assay: Effect on N-glycans in human HT-29 cells assessed as change in ConA expression at 40 uM incubated for 48 hrs by Western blot analysis; format: ADME, cell-based; conditions: ht-29, 48 h
[10] = test system: HT-29; assay: Effect on ppGalNAcT15 expression level in human HT-29 cells at 40 uM incubated for 48 hrs by Q-PCR analysis; format: ADME, cell-based; conditions: ht-29, 48 h
[11] = species: Cricetulus griseus; assay: Inhibition of ppGalNAcT2 in Chinese hamster ldlD cell lysates assessed as reduction in O-GalNAc glycosylation by measuring glycans VVA lectin expression at 0.5 to 4 uM incubated for 30 mins by Western blot analysis; format: subcellular; conditions: Lysate
[12] = target: T1, Polypeptide N-acetylgalactosaminyltransferase 2; assay: Inhibition of ppGalNAcT2 in human SW480 cells assessed as reduction in O-GalNAc glycosylation by measuring VVA lectin expression at 40 uM incubated for 48 hrs by Western blot analysis; format: cell-based
[13] = target: T1, Polypeptide N-acetylgalactosaminyltransferase 2; assay: Inhibition of ppGalNAcT2 in human RKO cells assessed as reduction in O-GalNAc glycosylation by measuring VVA lectin expression at 40 uM incubated for 48 hrs by Western blot analysis; format: cell-based
[14] = test system: HT-29; assay: Cytotoxicity against human HT-29 cells at 40 uM incubated for 48 hrs by CCK-8 assay; format: cell-based; conditions: ht-29, 48 h
[15] = test system: SW480; assay: Cytotoxicity against human SW480 cells at 40 uM incubated for 48 hrs by CCK-8 assay; format: cell-based; conditions: sw480, 48 h
[16] = test system: SW480; assay: Antimigratory activity in human SW480 cells at 40 uM incubated for 48 hrs by crystal violet staining based method; format: functional, cell-based

T1 sequence (Q10471 whole entry): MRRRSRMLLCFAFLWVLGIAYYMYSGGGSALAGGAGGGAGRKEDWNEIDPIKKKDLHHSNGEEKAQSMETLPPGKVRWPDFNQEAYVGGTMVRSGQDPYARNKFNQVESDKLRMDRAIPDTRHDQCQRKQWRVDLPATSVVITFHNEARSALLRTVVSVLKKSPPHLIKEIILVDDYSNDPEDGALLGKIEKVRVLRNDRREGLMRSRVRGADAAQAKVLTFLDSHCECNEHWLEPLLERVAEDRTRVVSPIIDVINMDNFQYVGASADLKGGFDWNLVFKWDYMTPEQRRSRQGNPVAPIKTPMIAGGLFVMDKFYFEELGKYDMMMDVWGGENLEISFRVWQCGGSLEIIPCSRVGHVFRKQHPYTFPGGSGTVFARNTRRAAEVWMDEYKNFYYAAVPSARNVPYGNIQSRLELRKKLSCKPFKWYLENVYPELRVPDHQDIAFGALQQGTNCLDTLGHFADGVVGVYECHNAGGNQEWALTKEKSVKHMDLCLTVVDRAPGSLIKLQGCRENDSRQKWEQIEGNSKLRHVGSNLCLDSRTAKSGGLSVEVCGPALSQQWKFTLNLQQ
Polypeptide N-acetylgalactosaminyltransferase 14, sequence (Q96FL9 whole entry): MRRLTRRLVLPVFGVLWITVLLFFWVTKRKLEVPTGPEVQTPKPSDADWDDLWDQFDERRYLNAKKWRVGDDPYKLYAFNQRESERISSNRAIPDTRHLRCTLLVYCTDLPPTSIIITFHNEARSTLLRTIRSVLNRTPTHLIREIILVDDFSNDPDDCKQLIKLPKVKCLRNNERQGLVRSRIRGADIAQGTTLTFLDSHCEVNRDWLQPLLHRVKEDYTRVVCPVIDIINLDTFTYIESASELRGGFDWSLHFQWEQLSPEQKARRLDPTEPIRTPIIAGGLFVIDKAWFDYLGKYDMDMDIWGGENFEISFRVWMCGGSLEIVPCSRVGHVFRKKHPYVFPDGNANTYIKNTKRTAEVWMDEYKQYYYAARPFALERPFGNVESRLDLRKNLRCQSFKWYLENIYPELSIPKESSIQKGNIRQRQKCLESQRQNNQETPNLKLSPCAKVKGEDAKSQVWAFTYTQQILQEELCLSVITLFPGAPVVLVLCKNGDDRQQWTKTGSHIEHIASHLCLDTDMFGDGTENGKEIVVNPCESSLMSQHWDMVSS

O=c1oc2c(O)c(O)ccc2c2cc(O)c(O)cc12
koff [1]: 1.04 ×10⁻³ /s | Ki [2]: 1070 nM | IC50 [3]: 2460 nM | IC50 [4]: 13800 nM | IC50 [5]: 460 nM | IC50 [6]: 1610 nM | Ratio IC50 [7]: 4 | inhibition [8]: Active | Activity [9]: Non-Toxic | Activity [10]: Non-Toxic | inhibition [11]: Dose-dependent effect | inhibition [12]: Active | inhibition [13]: Active | Activity [14]: Non-Toxic | Activity [15]: Non-Toxic | Activity [16]: Active
